System: Colorectal carcinoma HCT116 cells
Experiment: HCT116 + ETR1 cell viability assay (MTT)
Assay type: cell-based
Conditions: with ETR1 (40 ng/ml), 72 hrs
Procedure: Colorectal carcinoma HCT116 cells (ATCC# CCL-247) were cultured as monolayers in 96 well plates at a density of 2000 cells per well in 100 ul of McCoy's 5a medium (HyClone) supplemented with 2.2 g/L sodium bicarbonate (Gibco), 10% FBS (HyClone) and 1% penecillin/streptomycin (HyClone) for 24 hours. Triplicate wells of cells were treated for 72 hrs at 37° C. (5% CO2) with 50 ul of HGS agonistic Trail receptor antibody, ETR1 (40 ng/ml) in combination with 50 ul of diluted compound (0.01 to 10000 nM). Metabolic viability of remaining cells was assessed by MTT assay.
The percentage viability of compound-treated cells was expressed as a fraction of the absorbance/luminescence signal obtained from non-treated cells. EC50 values (corresponding to 50% cell survival in the presence of compound as compared to untreated controls) were calculated from MTT survival curves (HCT116 and SKOV3) using BioAssay software (CambridgeSoft) and from Cell Titer-Glo survival curves (synovioycte and Jurkat cells) using GraphPad Prism (Graph Pad Software Inc.). In the below chart, EC50 values are summarized as follows: a=EC50 of less than 10 nM; b=EC50 of 10-100 nM; and c=EC50 of greater than 100 nM.

SMILES	EC50 [µM]
CN[C@@H](C)C(=O)N[C@H](C(=O)N1C[C@@H](NC(=O)c2ccc(C(=O)N[C@H]3C[C@@H](C(=O)N[C@@H]4CCCc5cc(F)ccc54)N(C(=O)[C@@H](NC(=O)[C@H](C)NC)C4CCCCC4)C3)cc2)C[C@H]1C(=O)N[C@@H]1CCCc2cc(F)ccc21)C1CCCCC1 [Compound 40]	< 0.01
CN[C@@H](C)C(=O)N[C@H](C(=O)N1C[C@@H](NC(=O)c2ccc(C(=O)N[C@H]3C[C@@H](C(=O)Nc4ccccc4-c4ncccn4)N(C(=O)[C@@H](NC(=O)[C@H](C)NC)C4CCCCC4)C3)cc2)C[C@H]1C(=O)Nc1ccccc1-c1ncccn1)C1CCCCC1 [Compound 45]	0.01 to 0.1
CN[C@@H](C)C(=O)N[C@H](C(=O)N1C[C@@H](NC(=O)c2ccc(C(=O)N[C@H]3C[C@@H](C(=O)NC(C)(C)c4ccccc4)N(C(=O)[C@@H](NC(=O)[C@H](C)NC)C4CCCCC4)C3)cc2)C[C@H]1C(=O)NC(C)(C)c1ccccc1)C1CCCCC1 [Compound 37]	< 0.01
CN[C@@H](C)C(=O)N[C@H](C(=O)N1C[C@@H](NC(=O)c2ccc(C(=O)N[C@H]3C[C@@H](C(=O)Nc4cc(C)nn4-c4ccccc4)N(C(=O)[C@@H](NC(=O)[C@H](C)NC)C4CCCCC4)C3)cc2)C[C@H]1C(=O)Nc1cc(C)nn1-c1ccccc1)C1CCCCC1 [Compound 49]	0.01 to 0.1
CN[C@@H](C)C(=O)N[C@H](C(=O)N1C[C@@H](NC(=O)c2cnc(C(=O)N[C@H]3C[C@@H](C(=O)N[C@@H]4CCCc5ccccc54)N(C(=O)[C@@H](NC(=O)[C@H](C)NC)C4CCCCC4)C3)cn2)C[C@H]1C(=O)N[C@@H]1CCCc2ccccc21)C1CCCCC1 [Compound 55]	< 0.01
CN[C@@H](C)C(=O)N[C@H](C(=O)N1C[C@@H](NC(=O)c2ccc(C(=O)N[C@H]3C[C@@H](C(=O)N[C@H]4CCOc5ccccc54)N(C(=O)[C@@H](NC(=O)[C@H](C)NC)C4CCCCC4)C3)cc2)C[C@H]1C(=O)N[C@H]1CCOc2ccccc21)C1CCCCC1 [Compound 58]	0.01 to 0.1
CN[C@@H](C)C(=O)N[C@H](C(=O)N1C[C@@H](NC(=O)c2ccc(C(=O)N[C@H]3C[C@@H](C(=O)N[C@@H]4CCCc5ccc(F)cc54)N(C(=O)[C@@H](NC(=O)[C@H](C)NC)C4CCCCC4)C3)cc2)C[C@H]1C(=O)N[C@@H]1CCCc2ccc(F)cc21)C1CCCCC1 [Compound 33]	< 0.01
CN[C@@H](C)C(=O)N[C@H](C(=O)N1C[C@@H](NC(=O)c2ccc(C(=O)N[C@H]3C[C@@H](C(=O)N[C@@H]4CCCc5ccccc54)N(C(=O)[C@@H](NC(=O)[C@H](C)NC)C4CCCC4)C3)cc2)C[C@H]1C(=O)N[C@@H]1CCCc2ccccc21)C1CCCC1 [Compound 43]	< 0.01
CN[C@@H](C)C(=O)N[C@H](C(=O)N1C[C@@H](NC(=O)c2ccc(C(=O)N[C@H]3C[C@@H](C(=O)NCc4ccc(F)cc4)N(C(=O)[C@@H](NC(=O)[C@H](C)NC)C4CCCCC4)C3)cc2)C[C@H]1C(=O)NCc1ccc(F)cc1)C1CCCCC1 [Compound 38]	< 0.01
CN[C@@H](C)C(=O)N[C@H](C(=O)N1C[C@@H](NC(=O)c2ccc(C(=O)N[C@H]3C[C@@H](C(=O)N4CC[C@H](c5ccccc5)C4)N(C(=O)[C@@H](NC(=O)[C@H](C)NC)C4CCCCC4)C3)cc2)C[C@H]1C(=O)N1CC[C@H](c2ccccc2)C1)C1CCCCC1 [Compound 39]	0.01 to 0.1
CCN[C@@H](C)C(=O)N[C@H](C(=O)N1C[C@@H](NC(=O)c2ccc(C(=O)N[C@H]3C[C@@H](C(=O)N[C@@H]4CCCc5ccccc54)N(C(=O)[C@@H](NC(=O)[C@H](C)NCC)C4CCCCC4)C3)cc2)C[C@H]1C(=O)N[C@@H]1CCCc2ccccc21)C1CCCCC1 [Compound 53]	< 0.01
CN[C@H](C(=O)N[C@H](C(=O)N1C[C@@H](NC(=O)c2ccc(C(=O)N[C@H]3C[C@@H](C(=O)N[C@@H]4CCCc5ccccc54)N(C(=O)[C@@H](NC(=O)[C@@H](NC)C4CC4)C4CCCCC4)C3)cc2)C[C@H]1C(=O)N[C@@H]1CCCc2ccccc21)C1CCCCC1)C1CC1 [Compound 50]	0.01 to 0.1
CCCN[C@@H](C)C(=O)N[C@H](C(=O)N1C[C@@H](NC(=O)c2ccc(C(=O)N[C@H]3C[C@@H](C(=O)N[C@@H]4CCCc5ccccc54)N(C(=O)[C@@H](NC(=O)[C@H](C)NCCC)C4CCCCC4)C3)cc2)C[C@H]1C(=O)N[C@@H]1CCCc2ccccc21)C1CCCCC1 [Compound 56]	< 0.01
CN[C@@H](C)C(=O)N[C@H](C(=O)N1C[C@@H](NC(=O)c2ccc(C(=O)N[C@H]3C[C@@H](C(=O)Nc4ccccc4)N(C(=O)[C@@H](NC(=O)[C@H](C)NC)C4CCCCC4)C3)cc2)C[C@H]1C(=O)Nc1ccccc1)C1CCCCC1 [Compound 47]	< 0.01
CN[C@@H](C)C(=O)N[C@H](C(=O)N1C[C@@H](NC(=O)c2ccc(C(=O)N[C@H]3C[C@@H](C(=O)N[C@H](C)c4ccc(OC)cc4)N(C(=O)[C@@H](NC(=O)[C@H](C)NC)C4CCCCC4)C3)cc2)C[C@H]1C(=O)N[C@H](C)c1ccc(OC)cc1)C1CCCCC1 [Compound 34]	< 0.01
CN[C@@H](C)C(=O)N[C@H](C(=O)N1C[C@@H](NC(=O)c2ccc(C(=O)N[C@H]3C[C@@H](C(=O)N[C@H](C)c4ccc(F)cc4)N(C(=O)[C@@H](NC(=O)[C@H](C)NC)C4CCOCC4)C3)cc2)C[C@H]1C(=O)N[C@H](C)c1ccc(F)cc1)C1CCOCC1 [Compound 42]	0.01 to 0.1
CN[C@@H](C)C(=O)N[C@H](C(=O)N1C[C@@H](NC(=O)c2ccc(C(=O)N[C@H]3C[C@@H](C(=O)N[C@@H]4CCOc5cc(F)ccc54)N(C(=O)[C@@H](NC(=O)[C@H](C)NC)C4CCCCC4)C3)cc2)C[C@H]1C(=O)N[C@@H]1CCOc2cc(F)ccc21)C1CCCCC1 [Compound 36]	< 0.01
CN[C@@H](C)C(=O)N[C@H](C(=O)N1C[C@@H](NC(=O)c2ccc(C(=O)N[C@H]3C[C@@H](C(=O)N(C)[C@H](C)c4ccccc4)N(C(=O)[C@@H](NC(=O)[C@H](C)NC)C4CCCCC4)C3)cc2)C[C@H]1C(=O)N(C)[C@H](C)c1ccccc1)C1CCCCC1 [Compound 48]	0.01 to 0.1
CN[C@@H](C)C(=O)N[C@H](C(=O)N1C[C@@H](NC(=O)c2ccc(C(=O)N[C@H]3C[C@@H](C(=O)N4CCc5ccccc5C4)N(C(=O)[C@@H](NC(=O)[C@H](C)NC)C4CCCCC4)C3)cc2)C[C@H]1C(=O)N1CCc2ccccc2C1)C1CCCCC1 [Compound 35]	0.01 to 0.1
CN[C@@H](C)C(=O)N[C@H](C(=O)N1C[C@@H](NC(=O)c2ccc(C(=O)N[C@H]3C[C@@H](C(=O)N[C@@H]4CCCc5ccccc54)N(C(=O)[C@@H](NC(=O)[C@H](C)NC)C4CCC4)C3)cc2)C[C@H]1C(=O)N[C@@H]1CCCc2ccccc21)C1CCC1 [Compound 44]	< 0.01
CN[C@@H](C)C(=O)N[C@H](C(=O)N1C[C@@H](NC(=O)c2ccc(C(=O)N[C@H]3C[C@@H](C(=O)Nc4ccccc4-c4ccccc4)N(C(=O)[C@@H](NC(=O)[C@H](C)NC)C4CCCCC4)C3)cc2)C[C@H]1C(=O)Nc1ccccc1-c1ccccc1)C1CCCCC1 [Compound 52]	< 0.01
CN[C@@H](C)C(=O)N[C@H](C(=O)N1C[C@@H](NC(=O)c2ccc(C(=O)N[C@H]3C[C@@H](C(=O)N[C@@H]4CCCc5ccccc54)N(C(=O)[C@@H](NC(=O)[C@H](C)NC)C4CCOCC4)C3)cc2)C[C@H]1C(=O)N[C@@H]1CCCc2ccccc21)C1CCOCC1 [Compound 46]	0.01 to 0.1
CN[C@@H](C)C(=O)N[C@H](C(=O)N1C[C@@H](NC(=O)c2ccc(C(=O)N[C@H]3C[C@@H](C(=O)N[C@H]4CCCc5ccccc54)N(C(=O)[C@@H](NC(=O)[C@H](C)NC)C4CCCCC4)C3)cc2)C[C@H]1C(=O)N[C@H]1CCCc2ccccc21)C1CCCCC1 [Compound 57]	0.01 to 0.1
